The source made the active and inactive calls.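 How the source made its calls: active means compounds blocking the small tyrosine phosphatase LMPTP with an IC50 of 20 micromolar or lower; inactive means the rest.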
The molecules below were run against Low molecular weight phosphotyrosine protein phosphatase (Homo sapiens) (UniProt P24666) (assay: LMPTP-A phosphatase inhibitors, analogs, SAR follow-up, orthogonal assay, biochemical, absorbance (AID 686963)). Conditions: recombinant LMPTP-A, pNPP absorbance, 50 min.
Low molecular weight phosphotyrosine protein phosphatase (Homo sapiens), sequence (P24666 whole entry, looked up): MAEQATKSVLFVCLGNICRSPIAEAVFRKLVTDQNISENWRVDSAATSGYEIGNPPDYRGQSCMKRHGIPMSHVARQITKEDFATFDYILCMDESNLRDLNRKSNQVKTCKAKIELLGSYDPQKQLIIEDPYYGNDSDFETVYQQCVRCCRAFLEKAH
With `c1ccc(-c2cc(N3CCCCC3)c3ccccc3n2)cc1` the IC50 was “inactive”. In the case of `c1ccc(-c2nc(NCc3cccnc3)c3ccccc3n2)cc1`, the IC50 is reported as “inactive”. For `c1ccc(-c2nc(NCCCn3ccnc3)c3ccccc3n2)cc1`, the IC50 was “inactive”. `Cc1ccc(-c2nc(NCCN3CCOCC3)c3ccccc3n2)cc1` was tested, and the IC50 was “inactive”. In the case of `Cc1c(CCC(=O)O)c(=O)oc2c(C)c(OCc3ccccc3Cl)ccc12`, the IC50 is reported as 17.5 µM. `CCc1nc(N)nc(N)c1-c1ccc(Cl)cc1` was tested, and the IC50 was “inactive”. In the case of `CC(C)OCCCNc1nc(-c2ccccc2)nc2ccccc12`, the IC50 is reported as “inactive”. For `COc1ccccc1CNc1ncnc2ccsc12`, the IC50 was > 80 µM (inactive). Molecule `Nc1nc(N)c(Cc2ccc(Cl)cc2Cl)c(N)n1` has an IC50 of 13.5 µM. `c1ccc(-c2cc(NCCN3CCCCC3)c3ccccc3n2)cc1` was tested, and the IC50 was 4.97 µM. `Cc1ccc(-c2nc(NCc3cccnc3)c3ccccc3n2)cc1` was tested, and the IC50 was “inactive”. `O=C(OCCNc1nc(-c2ccccc2)nc2ccccc12)c1cccnc1` was tested, and the IC50 was “inactive”. For `Fc1ccccc1-c1nc(NC2CCCC2)c2ccccc2n1`, the IC50 was “inactive”. In the case of `Cc1cccc(-c2nc(NCCCN3CCOCC3)c3ccccc3n2)c1`, the IC50 is reported as “inactive”. In the case of `O=C(OCCNc1nc(-c2ccccc2)nc2ccccc12)c1ccncc1`, the IC50 is reported as “inactive”. `Clc1cccc(Cl)c1Cn1cnc(=NCc2ccco2)c2[nH]cnc21` was tested, and the IC50 was 11.6 µM. With `Fc1ccccc1-c1nc(NCCCN2CCOCC2)c2ccccc2n1` the IC50 was “inactive”.

From PubChem BioAssay AID686963 (Sanford-Burnham Center for Chemical Genomics, 2013)
